Patent publication US12466849B2, “Anti-viral and anti-tumoral compounds” (YEDA RESEARCH AND DEVELOPMENT CO. LTD, priority 2020, dated 2025)
pEC50: −log10 of the molar value. Read-outs that look alike come from different tables or passages of the source. Residues, ends and D or L forms follow the SMILES beside them. *: point of attachment. Cbz = O=C(OCc1ccccc1)*; CH2F = FC*

Experiments:
MOLT-3 cells = details: human, 7 d
[1] = system: Epstein-Barr virus (EBV), Akata strain; design: SI50 / SI90: unit not given beside the values
in vitro [2] = details: African green monkey
[3] = system: BK virus (BKV), Gardner strain; design: SI50 / SI90: unit not given beside the values
[4] = system: Epstein-Barr virus (EBV), Akata strain; assay: microbe, parasite or virus in culture; details: human gammaherpesvirus 4, Akata, 72 h
[5] = system: BK virus (BKV), Gardner strain; assay: microbe, parasite or virus in culture; details: Betapolyomavirus hominis, HFF
in vitro [6] = details: human
JC virus (JCV) = assay: microbe, parasite or virus in culture; details: JC polyomavirus, COS-7
[7] = system: SARS-CoV-2 (USA-WA1/2020); details: for SI50 (SI): SARS-CoV-2, SI = CC50/EC50
[8] = system: SARS-CoV-2 (USA-WA1/2020); type: cell-based; details: compound replenished daily, SI = CC50/EC50
MERS-CoV (EMC) = type: cell-based; details: SI = CC50/EC50
[9] = system: enterovirus-68 (EV-68, US/DY/14-18953)
[10] = system: Tacaribe virus (TCRV, TRVL-11573); design: SI50 (SI): unit not given beside the values
[11] = system: respiratory syncytial virus (RSV, A2)
[12] = system: influenza/California/07/2009 (H1N1)pdm09
[13] = system: dengue virus-2 (DENV-2, New Guinea C); details: SI = CC50/EC50
[14] = system: Influenza B/Florida/4/2006 (Yamagata)

`Nc1ccn(C[C@@H](CO)OCP(=O)(O)O)c(=O)n1` [CDV, Cidofovir, reference compound] showed a CC50 (MOLT-3 cells) of 97 µM, an SI50 [1] greater than 11 and an SI90 [1] greater than 3. The CC50 (in vitro [2]) was greater than 150 µM, the SI50 [3] was greater than 35 and the pEC50 [4] was 5.03. It also gave an EC90 [4] of 29.9 µM, a pEC50 [5] of 5.34 and an EC90 [5] of 106 µM. It also gave a pEC50 ([5]; 168 h) of 5.37, an EC90 ([5]; 168 h) of 24.1 µM and a CC50 at 7 d (in vitro [6]) of 101 µM. It also gave a pEC50 (JC virus (JCV)) of 5.25 and an EC90 (JC virus (JCV)) of 107 µM.

In the case of `CC(C)CC(NC(=O)OCc1ccccc1)C(=O)NC(CCC(=O)N(C)C)C(=O)CF` (stereo not drawn) [M128533, Z-Leu-Gln(NMe2)-FMK, reference compound] (Cbz-Leu-Glu(NMe2)-CH2F; configuration not given here), the SI (SARS-CoV; SARS-CoV, SI = CC50/EC50) was greater than 1300, the EQ50 (SARS-CoV; SARS-CoV, Vero 76 cells, positive control) was 0.075 µg/mL and the CC50 (SARS-CoV; Vero 76 cells without virus, positive control) was greater than 100 µg/mL. The CC50 (SARS-CoV-2) was greater than 100 µg/mL, the EQ50 (SARS-CoV-2) was 0.33 µg/mL and the SI (SARS-CoV-2; SARS-CoV-2, SI = CC50/EC50) was greater than 300. The CC50 [7] was greater than 100 µg/mL, the “SI50 (SI)” value [7] was greater than 1100 and the SI50 [8] was greater than 260. The “SI50 (SI)” value (MERS-CoV (EMC)) was greater than 13.

With `CC(C)(C)C(=O)SCCOP(=O)(OCCSC(=O)C(C)(C)C)OCC1=CC(O)C(n2ccc(=O)[nH]c2=O)O1` (stereo not drawn) [SATE-ddhU] the CC50 [9] was greater than 100 µM, the “SI50 (SI)” value ([9]; EV-68, SI = CC50/EC50) was 0 and the CC50 [10] was 170 µM. The “SI50 (SI)” value [10] was 0, the Activity [1] was “NA (key: NA (Not Active) SI50 = 0-3.9; MOD (Moderately Active) SI50 = 4-9.9; HI (Highly Active) SI50 = ≥10)” and the CC50 [1] was 109 µM. The pEC50 [1] was less than 4.52, the EC90 [1] was greater than 30 µM and the SI50 [1] was less than 4. For the same compound, the SI90 [1] was less than 4, the CC50 [11] was 180 µM and the “SI50 (SI)” value ([11]; RSV, SI = CC50/EC50) was 0. The CC50 [7] was 76 µM, the “SI50 (SI)” value [7] was 3.5 and the Activity [3] was “LO (key: NA (Not Active) SI50 = 0-3.9; LO (Slightly Active) SI50 = 4-9.9; MOD (Moderately Active) SI50 = 10-19.9; HI (Highly Active) SI50 = ≥20)”. For the same compound, the CC50 [3] was greater than 150 µM, the pEC50 [3] was 4.67 and the EC90 [3] was greater than 150 µM. The SI50 [3] was greater than 7, the SI90 [3] was 1 and the CC50 [12] was 560 µM. The “SI50 (SI)” value ([12]; Influenza(H1N1), SI = CC50/EC50) was 0, the SI50 [8] was greater than 6.7 and the “SI50 (SI)” value [13] was 0. The “SI50 (SI)” value (MERS-CoV (EMC)) was 0, the CC50 [14] was 560 µM and the “SI50 (SI)” value ([14]; Influenza B, SI = CC50/EC50) was 0.
